Experimental findings from patent US8076369B2, “N-alkyl-hydroxamic acid-isoindolyl compounds and their pharmaceutical uses” (Celgene Corporation, priority 2003, dated 2011) are described below.

By melting point is commonly meant the temperature, or range, at which the solid turns liquid. The molecule `CCOc1cc([C@@H](CCN(O)C=O)N2Cc3cccc(NC(C)=O)c3C2=O)ccc1OC` [Example 8, (1R)—N-{2-[1-(3-Ethoxy-4-methoxy-phenyl)-3-(N-formyl-N-hydroxy-amino)-propyl]-3-oxo-2,3-dihydro-1H-Isoindol-4-yl}-acetamide] showed a melting point of 79 to 81 °C.

As to `CCOc1cc(C(CCN(OC(C)=O)C(C)=O)N2Cc3cccc(NC(=O)C4CC4)c3C2=O)ccc1OC` (stereo not drawn) [Example 14], the melting point lay in the range of 123 to 125 °C.

Regarding `CCOc1cc([C@@H](CCN(C=O)OC(C)=O)N2Cc3cccc(NC(=O)C(C)C)c3C2=O)ccc1OC` [Example 11, (1R)—N-{2-[3-(N-Acetoxy-N-formyl-amino)-1-(3-ethoxy-4-methoxy-phenyl)-propyl]-3-oxo-2,3-dihydro-1H-Isoindol-4-yl}-Isobutyramide], the melting point lay in the range of 72 to 74 °C.

Molecule `CCOc1cc([C@@H](CCN(O)C=O)N2Cc3cccc(NC(=O)C(C)C)c3C2=O)ccc1OC` [Example 9, (1R)—N-{2-[1-(3-Ethoxy-4-methoxy-phenyl)-3-(N-formyl-N-hydroxy-amino)-propyl]-3-oxo-2,3-dihydro-1H-Isoindol-4-yl}-Isobutyramide] returned a melting point of 81 to 83 °C.

In turn, `CCOc1cc([C@@H](CCO)N2Cc3cccc(NC(=O)C4CC4)c3C2=O)ccc1OC` [Example 1, (1R)-Cyclopropanecarboxylic acid {2-[1-(3-ethoxy-4-methoxy-phenyl)-3-hydroxy-propyl]-3-oxo-2,3-dihydro-1H-Isoindol-4-yl}-amide] yielded a melting point of 103 to 105 °C.

Molecule `CCOc1cc([C@@H](CCN(O)C(N)=O)N2Cc3cccc(NC(=O)C(C)C)c3C2=O)ccc1OC` [Example 12, (1R)—N-{2-[3-(N-Aminocarbonyl-N-hydroxy-amino)-1-(3-ethoxy-4-methoxy-phenyl)-propyl]-3-oxo-2,3-dihydro-1H-Isoindol-4-yl}-Isobutyramide] returned a melting point of 137 to 139 °C.

`CCOc1cc([C@@H](CCN(O)C=O)N2C(=O)c3cccc(NC(C)=O)c3C2=O)ccc1OC` [Example 10, (1R)—N-{2-[1-(3-Ethoxy-4-methoxy-phenyl)-3-(N-formyl-N-hydroxy-amino)-propyl]-1,3-dioxo-2,3-dihydro-1H-Isoindol-4-yl}-acetamide]: the melting point lay within 96 to 98 °C.

`CCOc1cc(C(CCN(OC(=O)OC(C)(C)C)C(=O)OC(C)(C)C)N2Cc3cccc(NC(=O)C4CC4)c3C2=O)ccc1OC` [Example 4, (3R)-(tert-Butoxy)-N-{3-[7-(cyclopropylcarbonylamino)-1-oxoisoindolin-2-yl]-3-(3-ethoxy-4-methoxyphenyl)propyl}carbonylamino(tert-butoxy)formate] gave a melting point of 153 to 155 °C.

For `CCOc1cc([C@@H](CCNO)N2Cc3cccc(NC(=O)C4CC4)c3C2=O)ccc1OC` [Example 6, (3R)-Cyclopropanecarboxylic acid {2-[1-(3-ethoxy-4-methoxy-phenyl)-3-hydroxyamino-propyl]-3-oxo-2,3-dihydro-1H-Isoindol-4-yl}-amide], the melting point was in the range of 136 to 138 °C.

In turn, `CCOc1cc([C@@H](CCN(O)C=O)N2Cc3cccc(NC(=O)C4CC4)c3C2=O)ccc1OC` [Example 7, (1R)-Cyclopropanecarboxylic acid {2-[1-(3-ethoxy-4-methoxy-phenyl)-3-(N-formyl-N-hydroxy-amino)-propyl]-3-oxo-2,3-dihydro-1H-Isoindol-4-yl}-amide] returned a melting point of 102 to 104 °C.

Regarding `CCOc1cc([C@@H](CC(C)N(O)C=O)N2Cc3cccc(NC(=O)C4CC4)c3C2=O)ccc1OC` (stereo partly drawn) [Example 15, (1R)-Cyclopropanecarboxylic acid {2-[1-(3-ethoxy-4-methoxy-phenyl)-3-(formyl-hydroxy-amino)-butyl]-3-oxo-2,3-dihydro-1H-Isoindol-4-yl}-amide], the melting point is 142 to 144 °C.

Regarding `CCOc1cc(C(CCN(OC(=O)OC(C)(C)C)C(=O)OC(C)(C)C)N2Cc3cccc(N)c3C2=O)ccc1OC` (stereo not drawn) [Example 5, N-[3-(7-Amino-1-oxoisoindolin-2-yl)-3-(3-ethoxy-4-methoxyphenyl)propyl](tert-butoxy)carbonylamino (tert-butoxy)formate], the melting point was in the range of 85 to 87 °C.
